Measurements from patent US20240174618A1, “SUBSTITUTED (2-HETEROARYLOXYPHENYL)SULFONATES, SALTS THEREOF AND THEIR USE AS HERBICIDAL AGENTS” (Bayer Aktiengesellschaft, priority 2021, published 2024).

Assays:
Assay type in all cases: in vivo
Kochia scoparia (KCHSC) [1] = assay: A. Herbicidal pre-emergence efficacy, KCHSC
Summary of the method: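 Applied before emergence onto covering soil at rates of 1280 g/ha or less, using 600 L/ha spray water with 0.5% additive. Scoring: visual % efficacy after ~3 weeks, greenhouse.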

Poa annua (POAAN) = assay: B. Herbicidal post-emergence efficacy, POAAN
Summary of the method: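 Weeds grown in sandy loam in greenhouse pots, sprayed at one-leaf stage (2–3 weeks after sowing) with WP or EC formulations as aqueous suspension/emulsion plus 0.5% additive at 600 L/ha water, rates up to 1280 g/ha. Visual efficacy rated about 3 weeks later versus untreated controls (0% = like control, 100% = dead).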

[2] = test system: Digitaria sanguinalis (DIGSA); assay: C. Herbicidal pre-emergence efficacy, DIGSA; settings: scored after about 3 weeks
Summary of the method: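 Pre-emergence test: formulated compounds sprayed as aqueous suspension or emulsion with 0.5% additive at 600 l/ha onto soil covering sown seeds, at rates corresponding to 320 g/ha or less. After about 3 weeks in greenhouse, efficacy scored visually as percent versus untreated controls (100% = plants dead).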

[3] = test system: Amaranthus retroflexus (AMARE); assay: E. Herbicidal post-emergence efficacy, AMARE
Summary of the method: (§1)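 Visual scoring against untreated plants was done roughly 3 weeks after spraying (0% = no effect, 100% = plants dead). Spray application at 320 g/ha or lower, 600 l/ha water with 0.5% additive, was made onto green parts of one-leaf-stage greenhouse plants grown 2-3 weeks in sandy loam.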

[4] = test system: Echinochloa crus-galli (ECHCG); assay: E. Herbicidal post-emergence efficacy, ECHCG
Summary of the method: as §1

[5] = test system: Polygonum convolvulus (POLCO); assay: E. Herbicidal post-emergence efficacy, POLCO
Summary of the method: as §1

Kochia scoparia (KCHSC) [6] = assay: E. Herbicidal post-emergence efficacy, KCHSC
Summary of the method: as §1

[7] = test system: Triticum aestivum (TRZAS); assay: F. Post-emergence effect on useful plants, TRZAS; settings: useful plant
Summary of the method: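 Visual efficacy rating versus untreated plants, from 0% (no effect) to 100% (plants died), made about 3 weeks after post-emergence treatment. Formulated compounds (WP or EC, 0.5% additive, 600 l/ha water) were sprayed onto greenhouse-grown crops at the one-leaf stage, 2-3 weeks after sowing.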

[8] = 80 g/ha, scored visually after about 3 weeks vs untreated controls
[9] = pre-emergence, dosage 1280 g/ha

Structure (SMILES) | Pre-emergence efficacy against KCHSC (Kochia scoparia (KCHSC) [1]; [8]) [%] | Pre-emergence efficacy against KCHSC (Kochia scoparia (KCHSC) [1]; pre-emergence, dosage 320 g/ha) [%] | Pre-emergence efficacy against KCHSC (Kochia scoparia (KCHSC) [1]; [9]) [%] | Post-emergence efficacy against POAAN (Poa annua (POAAN); 320 g/ha) [%] | Post-emergence efficacy against POAAN (Poa annua (POAAN); 1280 g/ha) [%] | Pre-emergence efficacy against DIGSA ([2]; 80 g/ha) [%] | Pre-emergence efficacy against DIGSA ([2]; 320 g/ha) [%] | Post-emergence efficacy against AMARE in % ([3]; application rate 80 g/ha) [%] | Post-emergence efficacy against AMARE in % ([3]; application rate 320 g/ha) [%] | Post-emergence efficacy against ECHCG in % ([4]; application rate 80 g/ha) [%] | Post-emergence efficacy against ECHCG in % ([4]; application rate 320 g/ha) [%] | Post-emergence efficacy against POLCO in % ([5]; application rate 320 g/ha) [%] | Post-emergence efficacy against KCHSC in % (Kochia scoparia (KCHSC) [6]; application rate 80 g/ha) [%] | Post-emergence efficacy against KCHSC in % (Kochia scoparia (KCHSC) [6]; application rate 320 g/ha) [%] | Post-emergence efficacy against TRZAS in % ([7]; application rate 80 g/ha) [%] | Post-emergence efficacy against TRZAS in % ([7]; application rate 320 g/ha) [%] | Post-emergence efficacy against POLCO in % ([5]; application rate 80 g/ha) [%] | Post-emergence efficacy against POAAN (Poa annua (POAAN); 80 g/ha) [%]
O=S(=O)(CCCC(F)(F)F)Oc1c(Cl)cccc1Oc1ncc(Cl)cn1 [Example I-39] | 100 | 100 | 100 | 90 | 90 | 100 | 100 | 100 | 100 | 90 | 100 | 100 | 100 | 100 | 0 | 20 | – | –
O=S(=O)(CCC(F)(F)F)Oc1c(F)cccc1Oc1ncc(Br)cn1 [Example I-40] | 100 | 100 | 100 | 90 | 90 | 100 | 100 | 100 | 100 | 100 | 100 | 100 | 100 | 100 | 10 | 20 | 100 | –
O=S(=O)(CCCC(F)(F)F)Oc1c(F)cccc1Oc1ncc(Br)cn1 [Example I-41] | 100 | 100 | 100 | 90 | 90 | 100 | 100 | 100 | 100 | 90 | 100 | 100 | 100 | 100 | 0 | – | 100 | –
O=S(=O)(CCC(F)(F)F)Oc1c(F)cccc1Oc1ncc(Cl)cn1 [Example I-48] | 100 | 100 | 100 | 90 | 90 | 100 | 100 | 100 | 100 | 100 | 100 | 100 | 100 | 100 | 10 | – | 100 | 90
O=S(=O)(CCCC(F)(F)F)Oc1c(F)cccc1Oc1ncc(Cl)cn1 [Example I-49] | 100 | 100 | 100 | – | 90 | 100 | 100 | 100 | 100 | 100 | 100 | 100 | 100 | 100 | 20 | – | 100 | –
